Laboratory results as given in article PMC7407272, “Induction of Lysosome Membrane Permeabilization as a Therapeutic Strategy to Target Pancreatic Cancer Stem Cells” (Cancers, 2020).

Assays:
PDAC2 cultures = test: Sphere formation assay; type: cell-based, human; conditions: 0.1 µg/mL GEM or Cpd 1 at 1.25 or 2.5 µM
Excerpt: (§1) Pancreatic CSC spheres were generated as previously described in ultra-low attachment plates (Corning) using CSC media: serum-free DMEM/F12 medium (1:1; #21331-020; Gibco, Waltham, MA, USA), supplemented with Pen/Strep (1:100; #1500-063; Gibco, Waltham, MA, USA), Fungizone (1:250; #15290-018; Gibco), L-Glutamine (1:100; #25030-024; Gibco, Waltham, MA, USA), B-27 (1:50; #17504-044; Gibco, Waltham, MA, USA) and basic fibroblast growth factor (FGF-b) (1:5000; Gibco, Waltham, MA, USA). All cell culture was carried out at 37 °C in a 5% CO2 humidified incubator. To quantify spheres of > 40 μm, 1 mL of sample volume was analyzed with a CASY® Cell Counter (Roche Applied Sciences, Mannheim, Germany). The CASY® Cell Counter measuring principle is based on a capillary particle counter with pulse area analysis, that permits the determination of cell count, cell concentration, cell volume (peak), and average cell diameter, specifically diameters of 40–80 μm, 80–120 μm and >120 μm.

PDAC4 cultures = test: Sphere formation assay; type: cell-based, human; conditions: 0.1 µg/mL GEM or Cpd 1 at 1.25 or 2.5 µM
Excerpt: as §1

ULK1 = target: T1, ULK1 (Homo sapiens, UniProt O75385); test: KINOMEscan; type: binding; conditions: read-out: % Ctrl
T1 construct: purchased DiscoveRx KINOMEscan

[1] = tested on: re-plated PDAC2-derived spheres; test: Cytosolic cysteine cathepsin activity; type: cell-based, human; conditions: 1.25 or 2.5 µM, 6 h
Method: Spheres were re-plated, and then treated the following day with the indicated concentration of compounds for 6 h in CSC media. Cells were subsequently placed on ice and extracted with either 25 µg/mL or 250 µg/mL of digitonin in 250 mM sucrose, 20 mM HEPES, 10 mM KCl, 1.5 mM MgCl2, 1 mM EDTA, 1 mM EGTA, 1 mM pefablock, pH 7.5. The extracts were taken and spun down briefly to eliminate floating cells. Cathepsin activity was measured in a 96 well format by measuring cleavage of zFR-AMC (Z-Phe-Arg-AMC. Z: N-carbobenzyloxy; 7-Amino-4-methylcoumarin), as previously described.

AMPK-alpha2 = target: T2, AMPK-alpha2 (Homo sapiens, UniProt P54646); test: KINOMEscan; type: binding; conditions: read-out: % Ctrl
T2 construct: purchased DiscoveRx KINOMEscan
T2 sequence (P54646 whole entry): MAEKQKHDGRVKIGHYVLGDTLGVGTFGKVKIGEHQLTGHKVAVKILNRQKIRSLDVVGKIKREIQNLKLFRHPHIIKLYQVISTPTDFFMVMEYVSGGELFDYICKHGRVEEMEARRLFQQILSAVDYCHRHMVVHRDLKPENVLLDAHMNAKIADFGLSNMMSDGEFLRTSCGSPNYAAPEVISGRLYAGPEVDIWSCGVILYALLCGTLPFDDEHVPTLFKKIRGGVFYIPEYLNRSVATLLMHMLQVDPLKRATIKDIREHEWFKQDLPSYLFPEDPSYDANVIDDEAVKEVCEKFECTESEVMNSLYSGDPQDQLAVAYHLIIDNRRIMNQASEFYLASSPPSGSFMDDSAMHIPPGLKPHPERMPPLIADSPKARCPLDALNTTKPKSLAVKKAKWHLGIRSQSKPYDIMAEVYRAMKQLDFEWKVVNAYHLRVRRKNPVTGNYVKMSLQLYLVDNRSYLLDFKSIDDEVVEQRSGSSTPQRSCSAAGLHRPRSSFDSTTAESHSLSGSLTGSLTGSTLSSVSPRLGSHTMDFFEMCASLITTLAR

GRK3 = target: T3, GRK3 (Homo sapiens, UniProt P35626); test: KINOMEscan; type: binding; conditions: read-out: % Ctrl
T3 construct: purchased DiscoveRx KINOMEscan

PIK3CA(C420R) = target: T4, PIK3CA(C420R) (Homo sapiens, UniProt P42336, C420R); test: KINOMEscan; type: binding; conditions: read-out: % Ctrl
T4 construct: purchased DiscoveRx KINOMEscan
T4 sequence (P42336 whole entry C420R): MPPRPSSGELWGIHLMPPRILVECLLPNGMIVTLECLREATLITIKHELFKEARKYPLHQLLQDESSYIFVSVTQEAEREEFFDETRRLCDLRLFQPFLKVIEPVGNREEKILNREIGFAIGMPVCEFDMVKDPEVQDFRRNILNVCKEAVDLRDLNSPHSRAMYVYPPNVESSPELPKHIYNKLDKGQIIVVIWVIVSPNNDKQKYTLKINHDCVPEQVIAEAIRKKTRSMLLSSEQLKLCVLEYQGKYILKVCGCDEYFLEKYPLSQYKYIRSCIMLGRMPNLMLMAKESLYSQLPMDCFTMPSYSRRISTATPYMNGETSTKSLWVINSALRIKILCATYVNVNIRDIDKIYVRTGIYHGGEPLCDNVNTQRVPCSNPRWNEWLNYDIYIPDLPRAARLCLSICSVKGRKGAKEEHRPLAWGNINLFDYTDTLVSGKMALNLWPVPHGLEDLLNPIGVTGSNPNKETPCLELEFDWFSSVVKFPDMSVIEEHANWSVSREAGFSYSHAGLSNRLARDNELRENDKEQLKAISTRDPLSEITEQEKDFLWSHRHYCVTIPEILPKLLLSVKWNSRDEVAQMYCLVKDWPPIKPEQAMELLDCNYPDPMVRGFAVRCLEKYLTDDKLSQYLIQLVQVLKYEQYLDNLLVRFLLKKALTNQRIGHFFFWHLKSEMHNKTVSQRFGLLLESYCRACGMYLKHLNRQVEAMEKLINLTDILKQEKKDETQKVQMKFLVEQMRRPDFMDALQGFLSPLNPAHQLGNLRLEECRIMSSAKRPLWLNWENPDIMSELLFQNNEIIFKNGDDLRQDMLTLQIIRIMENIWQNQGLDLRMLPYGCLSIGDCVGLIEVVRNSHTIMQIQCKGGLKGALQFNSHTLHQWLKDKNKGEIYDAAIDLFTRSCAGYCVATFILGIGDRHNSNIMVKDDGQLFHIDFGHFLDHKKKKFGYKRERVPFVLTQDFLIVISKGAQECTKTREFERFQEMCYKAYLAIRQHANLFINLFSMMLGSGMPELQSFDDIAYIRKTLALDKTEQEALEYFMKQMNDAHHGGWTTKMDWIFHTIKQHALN

PRKG1 = target: T5, PRKG1 (Homo sapiens, UniProt Q13976); test: KINOMEscan; type: binding; conditions: read-out: % Ctrl
T5 construct: purchased DiscoveRx KINOMEscan
T5 sequence (Q13976 whole entry): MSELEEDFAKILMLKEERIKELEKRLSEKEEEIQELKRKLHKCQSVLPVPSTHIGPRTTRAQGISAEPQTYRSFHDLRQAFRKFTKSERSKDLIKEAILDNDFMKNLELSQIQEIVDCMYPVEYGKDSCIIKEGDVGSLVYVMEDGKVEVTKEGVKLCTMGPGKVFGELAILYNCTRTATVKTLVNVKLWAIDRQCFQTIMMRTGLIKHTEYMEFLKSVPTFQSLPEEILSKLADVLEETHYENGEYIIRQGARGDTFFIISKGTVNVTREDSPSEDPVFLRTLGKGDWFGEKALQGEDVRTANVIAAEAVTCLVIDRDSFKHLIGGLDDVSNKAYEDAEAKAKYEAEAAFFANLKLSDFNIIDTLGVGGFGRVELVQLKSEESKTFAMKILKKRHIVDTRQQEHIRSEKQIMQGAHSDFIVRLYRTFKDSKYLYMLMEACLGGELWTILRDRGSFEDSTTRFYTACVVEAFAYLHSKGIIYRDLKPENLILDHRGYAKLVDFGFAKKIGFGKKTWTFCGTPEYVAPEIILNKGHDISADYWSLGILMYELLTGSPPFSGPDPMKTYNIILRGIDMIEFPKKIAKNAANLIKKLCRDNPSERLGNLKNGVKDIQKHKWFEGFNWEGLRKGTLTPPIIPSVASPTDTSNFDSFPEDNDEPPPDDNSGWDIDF

CDKL2 = target: T6, CDKL2 (Homo sapiens, UniProt Q92772); test: KINOMEscan; type: binding; conditions: read-out: % Ctrl
T6 construct: purchased DiscoveRx KINOMEscan

CAMK2B = target: T7, CAMK2B (Homo sapiens, UniProt Q13554); test: KINOMEscan; type: binding; conditions: read-out: % Ctrl
T7 construct: purchased DiscoveRx KINOMEscan

MARK3 = target: T8, MARK3 (Homo sapiens, UniProt P27448); test: KINOMEscan; type: binding; conditions: read-out: % Ctrl
T8 construct: purchased DiscoveRx KINOMEscan
T8 sequence (P27448 whole entry): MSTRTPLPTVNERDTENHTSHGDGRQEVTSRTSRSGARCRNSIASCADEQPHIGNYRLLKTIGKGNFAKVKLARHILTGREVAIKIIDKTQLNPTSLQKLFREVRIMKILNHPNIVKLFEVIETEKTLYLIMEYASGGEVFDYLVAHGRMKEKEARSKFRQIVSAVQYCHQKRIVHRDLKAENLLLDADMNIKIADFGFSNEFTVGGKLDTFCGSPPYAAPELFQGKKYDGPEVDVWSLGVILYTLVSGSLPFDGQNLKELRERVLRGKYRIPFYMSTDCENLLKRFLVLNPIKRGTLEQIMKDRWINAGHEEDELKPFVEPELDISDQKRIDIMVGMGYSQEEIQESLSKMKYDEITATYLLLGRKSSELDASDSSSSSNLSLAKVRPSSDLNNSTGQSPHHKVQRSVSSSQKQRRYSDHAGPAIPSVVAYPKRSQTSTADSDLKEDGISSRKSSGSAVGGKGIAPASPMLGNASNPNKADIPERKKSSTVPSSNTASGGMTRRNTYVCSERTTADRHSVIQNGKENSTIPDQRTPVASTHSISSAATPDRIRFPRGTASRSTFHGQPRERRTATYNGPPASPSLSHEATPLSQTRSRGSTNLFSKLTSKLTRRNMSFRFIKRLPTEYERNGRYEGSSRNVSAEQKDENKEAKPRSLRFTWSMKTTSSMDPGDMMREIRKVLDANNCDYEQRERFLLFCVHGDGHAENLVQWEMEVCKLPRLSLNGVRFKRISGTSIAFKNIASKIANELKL

CDK4-cyclinD1 = target: T9, CDK4-cyclinD1 (Homo sapiens, UniProt P11802); test: KINOMEscan; type: binding; conditions: read-out: % Ctrl
T9 construct: purchased DiscoveRx KINOMEscan

MKNK2 = target: T10, MKNK2 (Homo sapiens, UniProt Q9HBH9); test: KINOMEscan; type: binding; conditions: read-out: % Ctrl
T10 construct: purchased DiscoveRx KINOMEscan
T10 sequence (Q9HBH9 whole entry): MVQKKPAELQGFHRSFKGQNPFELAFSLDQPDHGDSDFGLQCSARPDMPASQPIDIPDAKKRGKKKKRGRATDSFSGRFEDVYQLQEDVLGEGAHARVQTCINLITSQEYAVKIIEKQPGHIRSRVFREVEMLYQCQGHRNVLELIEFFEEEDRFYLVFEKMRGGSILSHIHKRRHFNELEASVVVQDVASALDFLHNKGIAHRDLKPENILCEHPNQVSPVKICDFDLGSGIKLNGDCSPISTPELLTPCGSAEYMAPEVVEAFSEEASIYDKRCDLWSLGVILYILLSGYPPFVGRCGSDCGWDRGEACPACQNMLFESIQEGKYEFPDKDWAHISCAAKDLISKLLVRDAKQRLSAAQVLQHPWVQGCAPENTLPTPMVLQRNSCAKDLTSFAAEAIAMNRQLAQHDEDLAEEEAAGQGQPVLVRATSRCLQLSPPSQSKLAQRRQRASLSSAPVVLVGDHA

FLT3(ITD,F691L) = test: KINOMEscan; type: binding, human; conditions: 1 µM
TYK2(JH2D.-pseudoK.) = target: T11, TYK2(JH2D.-pseudoK.) (Homo sapiens, UniProt P29597); test: KINOMEscan; type: binding; conditions: read-out: % Ctrl
T11 construct: TYK2(JH2D.-pseudoK.); purchased DiscoveRx KINOMEscan

MAP3K1 = target: T12, MAP3K1 (Homo sapiens, UniProt Q13233); test: KINOMEscan; type: binding; conditions: read-out: % Ctrl
T12 construct: purchased DiscoveRx KINOMEscan

PIM3 = PIM3 (Homo sapiens, UniProt Q86V86); test: KINOMEscan; type: binding; parameters: purchased DiscoveRx KINOMEscan; conditions: read-out: % Ctrl
ERK8 = target: T13, ERK8 (Homo sapiens, UniProt Q8TD08); test: KINOMEscan; type: binding; conditions: read-out: % Ctrl
T13 construct: purchased DiscoveRx KINOMEscan

SRPK2 = target: T14, SRPK2 (Homo sapiens, UniProt P78362); test: KINOMEscan; type: binding; conditions: read-out: % Ctrl
T14 construct: purchased DiscoveRx KINOMEscan

PIK3CA(Q546K) = target: T15, PIK3CA(Q546K) (Homo sapiens, UniProt P42336, Q546K); test: KINOMEscan; type: binding; conditions: read-out: % Ctrl
T15 construct: purchased DiscoveRx KINOMEscan
T15 sequence (P42336 whole entry Q546K): as the sequence (P42336 whole entry C420R) above, with R420C, Q546K counted along it

NEK2 = target: T16, NEK2 (Homo sapiens, UniProt P51955); test: KINOMEscan; type: binding; conditions: read-out: % Ctrl
T16 construct: purchased DiscoveRx KINOMEscan

PIK3CA(M1043I) = target: T17, PIK3CA(M1043I) (Homo sapiens, UniProt P42336, M1043I); test: KINOMEscan; type: binding; conditions: read-out: % Ctrl
T17 construct: purchased DiscoveRx KINOMEscan
T17 sequence (P42336 whole entry M1043I): as the sequence (P42336 whole entry C420R) above, with R420C, M1043I counted along it

TNNI3K = target: T18, TNNI3K (Homo sapiens, UniProt Q59H18); test: KINOMEscan; type: binding; conditions: read-out: % Ctrl
T18 construct: purchased DiscoveRx KINOMEscan

CSNK2A2 = target: T19, CSNK2A2 (Homo sapiens, UniProt P19784); test: KINOMEscan; type: binding; conditions: read-out: % Ctrl
T19 construct: purchased DiscoveRx KINOMEscan
T19 sequence (P19784 whole entry): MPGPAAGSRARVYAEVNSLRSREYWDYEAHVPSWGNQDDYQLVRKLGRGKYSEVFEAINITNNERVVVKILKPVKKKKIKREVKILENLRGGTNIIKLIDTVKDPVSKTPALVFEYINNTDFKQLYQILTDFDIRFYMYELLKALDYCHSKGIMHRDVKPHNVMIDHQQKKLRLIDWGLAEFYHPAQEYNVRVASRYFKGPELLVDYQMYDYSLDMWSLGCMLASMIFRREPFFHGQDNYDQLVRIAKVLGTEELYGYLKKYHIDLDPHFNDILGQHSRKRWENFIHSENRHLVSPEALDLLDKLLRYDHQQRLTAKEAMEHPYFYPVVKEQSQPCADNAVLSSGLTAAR

CSNK1D = target: T20, CSNK1D (Homo sapiens, UniProt P48730); test: KINOMEscan; type: binding; conditions: read-out: % Ctrl
T20 construct: purchased DiscoveRx KINOMEscan
T20 sequence (P48730 whole entry): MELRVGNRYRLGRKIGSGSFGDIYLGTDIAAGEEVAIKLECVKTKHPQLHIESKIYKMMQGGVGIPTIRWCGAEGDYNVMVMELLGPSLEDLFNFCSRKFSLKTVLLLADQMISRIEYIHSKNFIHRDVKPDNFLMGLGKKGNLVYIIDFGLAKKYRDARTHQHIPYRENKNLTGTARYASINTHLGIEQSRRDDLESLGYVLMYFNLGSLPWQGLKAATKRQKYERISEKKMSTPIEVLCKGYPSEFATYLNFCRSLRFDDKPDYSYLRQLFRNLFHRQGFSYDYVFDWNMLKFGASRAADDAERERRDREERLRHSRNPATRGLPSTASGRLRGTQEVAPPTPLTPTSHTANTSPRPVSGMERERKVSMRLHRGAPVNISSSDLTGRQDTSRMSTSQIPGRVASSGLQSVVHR

NEK3 = target: T21, NEK3 (Homo sapiens, UniProt P51956); test: KINOMEscan; type: binding; conditions: read-out: % Ctrl
T21 construct: purchased DiscoveRx KINOMEscan

TESK1 = target: T22, TESK1 (Homo sapiens, UniProt Q15569); test: KINOMEscan; type: binding; conditions: read-out: % Ctrl
T22 construct: purchased DiscoveRx KINOMEscan

ACVR2B = target: T23, ACVR2B (Homo sapiens, UniProt Q13705); test: KINOMEscan; type: binding; conditions: read-out: % Ctrl
T23 construct: purchased DiscoveRx KINOMEscan

TEC = target: T24, TEC (Homo sapiens, UniProt P42680); test: KINOMEscan; type: binding; conditions: read-out: % Ctrl
T24 construct: purchased DiscoveRx KINOMEscan

VPS34 = target: T25, VPS34 (Homo sapiens, UniProt Q8NEB9); test: KINOMEscan; type: binding; conditions: read-out: % Ctrl
T25 construct: purchased DiscoveRx KINOMEscan

EPHB3 = target: T26, EPHB3 (Homo sapiens, UniProt P54753); test: KINOMEscan; type: binding; conditions: read-out: % Ctrl
T26 construct: purchased DiscoveRx KINOMEscan

EPHB2 = target: T27, EPHB2 (Homo sapiens, UniProt P29323); test: KINOMEscan; type: binding; conditions: read-out: % Ctrl
T27 construct: purchased DiscoveRx KINOMEscan

## COc1nc2ccc(NCC3CCN(C)CC3)nn2c1C(=O)Nc1cccc(OC(F)(F)F)c1 [Cpd 1]
PDAC2 cultures
  sphere-forming capacity: decreased sphere forming capacity
PDAC4 cultures
  sphere-forming capacity: decreased sphere forming capacity

## CN1CCC(CNc2ccc3ncc(C(=O)Nc4cccc(OC(F)(F)F)c4)n3n2)CC1 [Cpd 2]
ULK1
  remaining binding at 1 µM: 98%
[1]
  cytosolic cysteine cathepsin activity: increased cytosolic cysteine cathepsin activity
AMPK-alpha2
  remaining binding at 1 µM: 100%
GRK3
  remaining binding at 1 µM: 76%
PIK3CA(C420R)
  remaining binding at 1 µM: 100%
PRKG1
  remaining binding at 1 µM: 100%
CDKL2
  remaining binding at 1 µM: 98%
CAMK2B
  remaining binding at 1 µM: 92%
MARK3
  remaining binding at 1 µM: 100%
CDK4-cyclinD1
  remaining binding at 1 µM: 100%
MKNK2
  remaining binding at 1 µM: 96%
FLT3(ITD,F691L)
  % Ctrl: 34%
TYK2(JH2D.-pseudoK.)
  remaining binding at 1 µM: 12%
MAP3K1
  remaining binding at 1 µM: 100%
PIM3
  remaining binding at 1 µM: 18%
ERK8
  remaining binding at 1 µM: 96%
SRPK2
  remaining binding at 1 µM: 94%
PIK3CA(Q546K)
  remaining binding at 1 µM: 89%
NEK2
  remaining binding at 1 µM: 94%
PIK3CA(M1043I)
  remaining binding at 1 µM: 90%
TNNI3K
  remaining binding at 1 µM: 100%
CSNK2A2
  remaining binding at 1 µM: 39%
CSNK1D
  remaining binding at 1 µM: 100%
NEK3
  remaining binding at 1 µM: 100%
TESK1
  remaining binding at 1 µM: 90%
ACVR2B
  remaining binding at 1 µM: 100%
TEC
  remaining binding at 1 µM: 96%
VPS34
  remaining binding at 1 µM: 75%
EPHB3
  remaining binding at 1 µM: 86%
EPHB2
  remaining binding at 1 µM: 95%
